Key:
[1] = Treatment of skin diseases (psoriasis, neurodermatitis); assay type: in vivo, human
Protocol: The term skin diseases describes in particular psoriasis and neurodermatitis. Basically, in the case of psoriasis patients the inventive dosing schedule is very welcome, because it counterbalances the negative effects of very strong medications that are administered in such cases; these improve by 65-80% with the inventive dosing schedule.
The subjects were treated with sodium carbonate with about 2 g+daily, after which the normal effect is achieved as described above; 1-2 weeks.

[2] = Treatment of obesity, cellulitis, cellulite, acne
Protocol: Test series 1: The subjects were treated with vitamins, trace elements (ZK), and/or natural medicines individually and in combination.
Alkaline saturation of the body, at plasma pH of a maximum of 8.5.

[3] = Treatment of acidosis, test series with and without Na
Protocol: In order to restore the body rapidly and successfully, test series were performed with and without Na.
Test series 1: The subjects were treated with vitamins, trace elements, and/or natural medicines individually and in combination.

[4] = test system: tumor tissue; experiment: Treatment of cancer under medical supervision
Protocol: The subjects were treated under medical supervision with antibiotics and vitamins, trace elements, and/or natural medicines individually and in combination.

[5] = Treatment of cardiovascular diseases; assay type: in vivo, human
Protocol: The subjects were treated with sodium carbonate with about at least 2 g daily, with improvement occurring within short time, within about 1-2 weeks.

[6] = test series 2, at least 2 g daily

O=C([O-])[O-].[Na+].[Na+] [sodium carbonate]
time until the normal effect is achieved ([1]; about 2 g+ daily): 1-2 weeks
considerable improvement ([1]; psoriasis or neurodermatitis patients): about 80%
weight change ([2]; followed by high-dose vitamins and acids for several weeks, no yo-yo effect over about 2 years): extensive weight reduction
rehabilitation ([2]; obesity, cellulitis, cellulite, acne): 95%
uptake of mineral substances and natural medicines ([2]; test series 2): improved considerably
time until tissue responded perceptibly [2, 6]: 1-2 weeks
uptake of mineral substances and natural medicines ([3]; test series 2): improved considerably and obviously
time until improvement occurred [3, 6]: 1-2 weeks
successful ([3]; test series 2, followed by vitamins and trace elements): 100%
time until tissue reacted perceptibly ([4]; cancer, at least 2 g daily): 1-2 weeks
swelling reduced ([4]; cancer, statements made by the subjects): about 80%
reduction in tumor size ([4]; cancer, to date): about 30%
uptake of mineral substances and natural medicines ([4]; used internally and externally): improved considerably
time until improvement occurred ([5]; about at least 2 g daily): 1-2 weeks
uptake of mineral substances and natural medicines ([5]; cardiovascular diseases): improved considerably
rehabilitation ([5]; cardiovascular diseases, followed by vitamins and trace elements): 100%

Reference: patent US20160095894A1, “DIETETIC MULTI-COMPONENT SYSTEM” (priority 2011, published 2016)
